Paper PMC3853281, “The Strawberry Pathogenesis-related 10 (PR-10) Fra a Proteins Control Flavonoid Biosynthesis by Binding to Metabolic Intermediates” (The Journal of Biological Chemistry, 2013)
pKd: −log10 of the molar value.

What was measured:
Fra a 1E = target: T1, Fra a 1E (Fragaria x ananassa, UniProt Q256S2); assay: isothermal titration calorimetry; format: binding
T1 construct: gene FRAA1E.1; full-length ORF in pETM11, E. coli BL21(DE3); N-terminal His6 cut by TEV, Ala-Met-Ala left at N-terminus; monomer, 18 kDa by SEC-MALLS; residues 2-160 modelled

Fra a 2 = target: T2, Fra a 2 (Fragaria x ananassa, UniProt D0E0C6); assay: isothermal titration calorimetry; format: binding
T2 construct: gene FRAA2; full-length ORF in pETM11, E. coli BL21(DE3); N-terminal His6 cut by TEV, Ala-Met-Ala left at N-terminus; apparent 28 kDa by SEC-MALLS
T2 sequence (D0E0C6 whole entry): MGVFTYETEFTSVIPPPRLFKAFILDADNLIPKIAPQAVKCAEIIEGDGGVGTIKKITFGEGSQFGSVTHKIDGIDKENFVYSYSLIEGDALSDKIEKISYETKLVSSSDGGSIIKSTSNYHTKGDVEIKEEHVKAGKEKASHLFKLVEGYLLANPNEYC

T1 sequence (Q256S2 whole entry, the tested form may be a part): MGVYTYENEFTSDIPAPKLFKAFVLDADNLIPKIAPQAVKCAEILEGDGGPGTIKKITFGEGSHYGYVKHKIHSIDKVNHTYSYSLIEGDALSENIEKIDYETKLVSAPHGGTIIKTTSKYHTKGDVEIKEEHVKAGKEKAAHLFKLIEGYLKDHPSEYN

| Compound | pKd (Fra a 1E) | pKd (Fra a 2) |
| --- | --- | --- |
| O=C(O)[C@H]1O[C@@H](Oc2c(-c3ccc(O)c(O)c3)oc3cc(O)cc(O)c3c2=O)[C@H](O)[C@@H](O)[C@@H]1O [Quercetin-3-O-glucuronide] | 5.28 |  |
| O=c1c(O)c(-c2cc(O)c(O)c(O)c2)oc2cc(O)cc(O)c12 [myricetin] |  | 4.71 |
